Key:
Karpas-422 (EZH2 Y641N) = assay: In vitro 50% growth inhibition (GI50), MTT/CCK8, Karpas-422 cells; type: cell-based; conditions: Homo sapiens, KARPAS-422, 144 h; Drug treatment for 6 days
[1] = In vivo pharmacokinetics in rats; conditions: SD rats
Experimental: Test Example 4 Study of In Vivo Pharmacokinetics of the Present Compounds in Rats
Male SD rats (Shanghai Sippr-BK Experimental Animal Co., Ltd) were purchased and kept in Shanghai University of Traditional Chinese Medicine animal center (approved by the ethics committee of Shanghai University of Traditional Chinese Medicine) for 7 days. The rats were randomly divided into 4 groups (˜220 g), 3 rats for each group. Animals were administered intravenously (iv) and orally (po). The rats in po group were starved for 12 hours before administration. After administration, blood was collected from the orbital venous plexus at 0 min (before administration), 2 min, 5 min, 15 min, 30 min, 1 h, 2 h, 4 h, 6 h, 8 h and 24 h. About 200 ul of blood was collected at each time point, and were collected in 1.5 ml centrifuge tube containing heparin sodium. The upper blood […] were collected by centrifugation (8000 rpm, 3 min) and stored at −80° C.
Preparation of test samples: 125.0 mg compound 34 or compound 35 was weighed and added with 4 ml ultrapure water, and 25 ul methanesulfonic acid was added with stirring. The mixture was further stirred until clear and transparent (pH ˜3.32). 1 ml of the above solution was added with 4 ml of ultra-pure water to obtain 5 mg/ml of compound 34 or compound 35 solution (pH=3.5).
Dose and mode of administration: single oral dose (100 mpk) and single intravenous dose (5 mpk).
Administration volume: 4 ml/kg (orally), 1 ml/kg (intravenously).
The plasma concentration of the compound was determined by LC-MS/MS (AB scexqtrap@4500 LCMS/MS system). Pharmacokinetic parameters were calculated by WinNonlin (a professional software). The experiment was repeated once.

In the case of `C=CC(=O)N1CCC(N(CC)c2cc(-c3ccc(CN4CCCCC4)cc3)cc(C(=O)NCc3c(C)cc(C)[nH]c3=O)c2C)CC1` [Example 34, N-(4,6-dimethyl-2-oxo-1,2-dihydro-pyridin-3-ylmethyl)-5-[(1-acryloyl-piperidin-4-yl)-ethyl-amino]-4-methyl-4′-(piperidin-1-ylmethyl)-[1,1′-biphenyl]-3-carboxamide], the GI50 (Karpas-422 (EZH2 Y641N)) is reported as 10 to 100 nM, the “bioavailability, in words” value [1] is reported as “good bioavailability” and the bioavailability ([1]; male, rat, plasma, IV 5 mg/kg, PO 100 mg/kg, methanesulfonic acid aqueous solution) is reported as 48.8%.

From US11214561B2, “Histone methyltransferase EZH2 inhibitor, preparation method and pharmaceutical use thereof” (ANCUREALL PHARMACEUTICAL (SHANGHAI) CO., LTD., priority 2017, dated 2022)
